From PMC3179504 (PLoS ONE, 2011)
Entries after “also recorded” stand apart in the source; their conditions may differ.

Columns and labels:
HEK293-NK1R cells = experiment: SP-induced membrane blebbing in HEK293-NK1R cells (phase-contrast / DIC / confocal microscopy); assay type: cell-based; details: for effect of colchicine on SP-induced blebbing: colchicine pretreatment
T cells = details: ref [26]; cited from earlier work
Excerpt: (§1) It has been shown that Rho GTPases are regulated by microtubule dynamics. […] One of the major intracellular signaling molecules involved in the regulation of tubulin function is p21- activated kinase 1 (PAK), which interacts with a variety of other proteins ...

RhoA = details: microtubule depolymerizing reagent; ref [24], [25]; cited from earlier work
Excerpt: as §1

[1] = test system: myosin light chain 2 (MLC2) (Ser19); assay type: cell-based, human
Experimental: Cells were lysed in lithium dodecyl sulfate (LDS) sample buffer (Invitrogen, Carlsbad, CA), and lysed using a sonic dismembrator model 100 (Fisher Scientific, Hampton, NH). Cell extracts were subjected to LDS polyacrylamide gel electrophoresis and transferred to polyvinylidene difluoride membranes. After blocking with 5% nonfat dry milk in 0.1% Tween 20/TBS, membranes were incubated with the primary antibody. […] The following non phospho-specific antibodies were used: Beta-Actin and PAK1/2/3 (Cell Signaling Technology, Beverly, MA). Secondary antibodies conjugated to horseradish peroxidase were either anti-rabbit (Biorad, Hercules, CA), or anti-mouse (Cell Signaling Technology, Beverly, MA). Bands were visualized by enhanced chemiluminescence using SuperSignal® West Pico Chemiluminescent Substrate (Thermo Scientific, Rockford, IL) on a VersaDoc Imager (BioRad, Hercules, CA).

## Oc1ccc2ccccc2c1SSc1c(O)ccc2ccccc12 [IPA3, 1, 1′-Dithiodi-2-naphthtol]
HEK293-NK1R cells; IPA3 pretreatment, phase-contrast
  effect of IPA3 on SP-induced blebbing: not in HEK293 cells; also recorded: no effect on HEK293- NK1R cell's ability to bleb

## COC(=O)Nc1nc2ccc(C(=O)c3cccs3)cc2[nH]1 [Nocodazole]
T cells
  effect of nocodazole on T cell migratory phenotype: converts T cells from the classical lamellipodial/uropod migratory phenotype to a blebbing migratory phenotype
RhoA
  RhoA activation by nocodazole: induces RhoA activation

## COc1cc2c(c(OC)c1OC)-c1ccc(OC)c(=O)cc1[C@@H](NC(C)=O)CC2 [colchicine]
HEK293-NK1R cells; colchicine
  cell morphology after colchicine: causing the cells to appear less adherent and to round up
HEK293-NK1R cells
  effect of colchicine on SP-induced blebbing: not able to block the SP-induced blebbing
HEK293-NK1R cells; listed as Colchicine
  effect of colchicine on SP-induced blebbing: unable to block bleb formation

## C3 transferase
[1]
  effect of C3 transferase on MLC phosphorylation: decrease in MLC phosphorylation
